Data set [1] deals with soybean plants transformed by pCPE826 (Pf-Evo41+HPPD-Gm RNAi). Nature of the data set: Field trial of the T1 generation, herbicide tolerance. The note with it: in vivo. The source says:
(§1) The above result was confirmed in a field trial of the T1 generation.

The subject of data set [2] is soybean plants transformed by pMLS0519 (Pf-KGEPHSVV). The data set is described as above. Format: in vivo. The settings on record: Puerto Rico, among the most effective constructs.
Description: as §1

With `CS(=O)(=O)c1cc(C(F)(F)F)ccc1C(=O)c1cnoc1C1CC1` [Isoxaflutole, (5-cyclopropyl-4-isoxazolyl)[2-(methylsulfonyl)-4-(trifluoromethyl)phenyl]methanone], the “tolerance to HPPD inhibitor” value in data set [1] and in data set [2] was “good tolerance” each time.

For the origin of these results see patent US11279944B2, “Of herbicide tolerance to 4-hydroxyphenylpyruvate dioxygenase (HPPD) inhibitors by down-regulation of HPPD expression in soybean” (BASF AGRICULTURAL SOLUTIONS SEED US LLC, priority 2017, dated 2022).
